Test results as given in US9957278B2, “Furopyridine compounds for the treatment of hepatitis C” (BRISTOL-MYERS SQUIBB COMPANY, priority 2014, dated 2018).
Where two headings read alike, the source gives them in different places.

Tested on: genotype 1b (Con-1) HCV replicon
Experiment: HCV Replicon Luciferase Assay (genotype 1b)
Assay type: cell-based
Conditions: Hepatitis C virus, 72 h, genotype 1b replicon in Huh-7 cells, Renilla luciferase, 3 days incubation
Experimental: The cell lines used to evaluate compounds consist of a human hepatocyte derived cell line (Huh-7) that constitutively expresses a genotype 1b (Con-1) HCV replicon or a genotype 1b (Con-1) HCV replicon with an asparagine replacing the cysteine at amino acid 316, or a genotype 2a (JFH-1) replicon, containing a Renilla luciferase reporter gene. These cells were maintained in Dulbecco's modified Eagle medium (DMEM) containing 10% FBS, 100 U/mL penicillin/streptomycin and 1.0 mg/mL G418.
To evaluate compound efficacy, titrated compounds were transferred to sterile 384-well tissue culture treated plates, and the plates were seeded with HCV replicon cells (50 μL at a density of 2.4×10^3 cells/well) in DMEM containing 4% FBS (final DMSO concentration at 0.5%). After 3 days incubation at 37° C., cells were analyzed for Renilla Luciferase activity using the EnduRen substrate (Promega cat #E6485) according to the manufacturer's directions. Briefly, the EnduRen substrate was diluted in DMEM and then added to the plates to a final concentration of 7.5 μM. The plates were incubated for at least 1 h at 37° C. then read on a Viewlux Imager (PerkinElmer) using a luminescence program. The 50% effective concentration (EC50) was calculated using the four-parameter logistic formula noted above.
Compound EC50 data is expressed as A: <100 nM; B=100-1000 nM; C>1000 nM).

SMILES	EC50 (read-out: EC50 1b (class)) [µM]	EC50 (read-out: EC50 (uM) 1b) [µM]
CNC(=O)c1c(-c2ccc(F)cc2)oc2nc(Cl)c(-c3ccc(OC)c(C(=O)NCC(F)(F)C(F)(F)C(F)(F)F)c3)cc12 [Compound 10001]	0.1 to 1	0.149
C#CC(C)(C)NC(=O)c1cc(-c2cc3c(C(=O)NC)c(-c4ccc(F)cc4)oc3nc2Cl)ccc1OC [Compound 10002]	< 0.1	0.0362
CNC(=O)c1c(-c2ccc(F)cc2)oc2nc(Cl)c(-c3ccc(OC)c(C(=O)NC(CF)(CF)CF)c3)cc12 [Compound 10003]	0.1 to 1	
CNC(=O)c1c(-c2ccc(F)cc2)oc2nc(Cl)c(-c3cccc(C(=O)NC(CF)(CF)CF)c3)cc12 [Compound 11001]	0.1 to 1	
CNC(=O)c1c(-c2ccc(F)cc2)oc2nc(CCC(F)(F)F)c(-c3cccc(C(=O)NC(C)(C)C(F)(F)F)c3)cc12 [Compound 20001]	< 0.1	0.0063
CNC(=O)c1c(-c2ccc(F)cc2)oc2nc(CCC(F)(F)F)c(-c3cccc(C(=O)NC(CF)(CF)CF)c3)cc12 [Compound 20002]	< 0.1	
C#CC(C)(C)NC(=O)c1cccc(-c2cc3c(C(=O)NC)c(-c4ccc(F)cc4)oc3nc2CCC(F)(F)F)c1 [Compound 20003]	< 0.1	0.004
CNC(=O)c1c(-c2ccc(F)cc2)oc2nc(CCC(F)(F)F)c(-c3cccc(C(=O)NC(C)C(F)(F)F)c3)cc12 (stereo not drawn) [Compound 20004]	< 0.1	
CCC(NC(=O)c1cccc(-c2cc3c(C(=O)NC)c(-c4ccc(F)cc4)oc3nc2CCC(F)(F)F)c1)C(F)(F)F (stereo not drawn) [Compound 20005]	< 0.1	
CNC(=O)c1c(-c2ccc(F)cc2)oc2nc(CCC(F)(F)F)c(-c3cccc(C(=O)N[C@@H](CO)C4CC4)c3)cc12 [Compound 20006]	< 0.1	
CNC(=O)c1c(-c2ccc(F)cc2)oc2nc(CCC(F)(F)F)c(-c3cccc(C(=O)NC(C)(C)C4CC4)c3)cc12 [Compound 20007]	< 0.1	
CNC(=O)c1c(-c2ccc(F)cc2)oc2nc(CCC(F)(F)F)c(-c3cccc(C(=O)NC(C4CC4)C4CC4)c3)cc12 [Compound 20008]	< 0.1	
CC[C@@H](NC(=O)c1cccc(-c2cc3c(C(=O)NC)c(-c4ccc(F)cc4)oc3nc2CCC(F)(F)F)c1)C1CC1 [Compound 20009]	< 0.1	0.01
CC[C@H](NC(=O)c1cccc(-c2cc3c(C(=O)NC)c(-c4ccc(F)cc4)oc3nc2CCC(F)(F)F)c1)C1CC1 [Compound 20010]	< 0.1	
CNC(=O)c1c(-c2ccc(F)cc2)oc2nc(CCC(F)(F)F)c(-c3cccc(C(=O)N[C@@H](C)C4CC4)c3)cc12 [Compound 20011]	< 0.1	
CNC(=O)c1c(-c2ccc(F)cc2)oc2nc(CCC(F)(F)F)c(-c3cccc(C(=O)N[C@H](C)C4CC4)c3)cc12 [Compound 20012]	< 0.1	
CNC(=O)c1c(-c2ccc(F)cc2)oc2nc(CCC(F)(F)F)c(-c3cccc(C(=O)NC(C)C4CC4)c3)cc12 (stereo not drawn) [Compound 20013]	< 0.1	
CNC(=O)c1c(-c2ccc(F)cc2)oc2nc(CCC(F)(F)F)c(-c3cccc(C(=O)N[C@@H](COC)C4CC4)c3)cc12 [Compound 20014]	< 0.1	
CNC(=O)c1c(-c2ccc(F)cc2)oc2nc(CCC(F)(F)F)c(-c3cccc(C(=O)N[C@H](COC)C4CC4)c3)cc12 [Compound 20015]	< 0.1	0.0056
CNC(=O)c1c(-c2ccc(F)cc2)oc2nc(CCC(F)(F)F)c(-c3cccc(C(=O)NC(COC)C4CC4)c3)cc12 (stereo not drawn) [Compound 20016]	< 0.1	0.0217
CNC(=O)c1c(-c2ccc(F)cc2)oc2nc(CCC(F)(F)F)c(-c3cccc(C(=O)NC(c4ccccc4)C4CC4)c3)cc12 (stereo not drawn) [Compound 20017]	< 0.1	
CNC(=O)c1c(-c2ccc(F)cc2)oc2nc(CCC(F)(F)F)c(-c3cccc(C(=O)N4CC5(CCC5C(=O)OC)C4)c3)cc12 (stereo not drawn) [Compound 20018]	0.1 to 1	0.11
CNC(=O)c1c(-c2ccc(F)cc2)oc2nc(CCC(F)(F)F)c(-c3cccc(C(=O)NCC(F)(F)F)c3)cc12 [Compound 20019]	< 0.1	
CNC(=O)c1c(-c2ccc(F)cc2)oc2nc(CCC(F)(F)F)c(-c3cccc(C(=O)NC4CCNC4=O)c3)cc12 (stereo not drawn) [Compound 20020]	< 0.1	0.0519
CNC(=O)c1c(-c2ccc(F)cc2)oc2nc(CCC(F)(F)F)c(-c3cccc(C(=O)NCC(F)F)c3)cc12 [Compound 20021]	< 0.1	
CNC(=O)c1c(-c2ccc(F)cc2)oc2nc(CCC(F)(F)F)c(-c3cccc(C(=O)NCC(F)(F)C(F)(F)F)c3)cc12 [Compound 20022]	< 0.1	0.0059

SMILES	EC50 (read-out: EC50 1b (class)) [µM]	EC50 (read-out: EC50 (uM) 1b) [µM]
CNC(=O)c1c(-c2ccc(F)cc2)oc2nc(CCC(F)(F)F)c(-c3cccc(C(=O)NC(C)(C)C(=O)OC)c3)cc12 [Compound 20023]	< 0.1	
CNC(=O)c1c(-c2ccc(F)cc2)oc2nc(CCC(F)(F)F)c(-c3cccc(C(=O)NC(C)(C)CF)c3)cc12 [Compound 20025]	< 0.1	
CNC(=O)c1c(-c2ccc(F)cc2)oc2nc(CCC(F)(F)F)c(-c3cccc(C(=O)NCC(C)(C)CO)c3)cc12 [Compound 20026]	< 0.1	0.0043
CNC(=O)c1c(-c2ccc(F)cc2)oc2nc(CCC(F)(F)F)c(-c3cccc(C(=O)NC(C)(CO)CO)c3)cc12 [Compound 20027]	< 0.1	
CCOC(=O)C(C)(C)NC(=O)c1cccc(-c2cc3c(C(=O)NC)c(-c4ccc(F)cc4)oc3nc2CCC(F)(F)F)c1 [Compound 20029]	< 0.1	
CNC(=O)c1c(-c2ccc(F)cc2)oc2nc(CCC(F)(F)F)c(-c3cccc(C(=O)NCC(C)(C)C)c3)cc12 [Compound 20030]	< 0.1	
CNC(=O)c1c(-c2ccc(F)cc2)oc2nc(CCC(F)(F)F)c(-c3cccc(C(=O)NC4CCOCC4)c3)cc12 [Compound 20031]	< 0.1	0.0136
CNC(=O)c1c(-c2ccc(F)cc2)oc2nc(CCC(F)(F)F)c(-c3cccc(C(=O)NCC4(COC)CC4)c3)cc12 [Compound 20032]	< 0.1	
CNC(=O)c1c(-c2ccc(F)cc2)oc2nc(CCC(F)(F)F)c(-c3cccc(C(=O)NCC(C)(C)COC)c3)cc12 [Compound 20033]	< 0.1	
CNC(=O)c1c(-c2ccc(F)cc2)oc2nc(CCC(F)(F)F)c(-c3cccc(C(=O)NC4CCOC4)c3)cc12 (stereo not drawn) [Compound 20034]	< 0.1	0.0118
CNC(=O)c1c(-c2ccc(F)cc2)oc2nc(CCC(F)(F)F)c(-c3cccc(C(=O)NCC(C)(F)F)c3)cc12 [Compound 20035]	< 0.1	
CNC(=O)c1c(-c2ccc(F)cc2)oc2nc(CCC(F)(F)F)c(-c3cccc(C(=O)NC(C)(C)CCO)c3)cc12 [Compound 20036]	< 0.1	
CNC(=O)c1c(-c2ccc(F)cc2)oc2nc(CCC(F)(F)F)c(-c3cccc(C(=O)NCC(F)(F)C(F)(F)C(F)(F)F)c3)cc12 [Compound 20037]	< 0.1	0.0106
C#CC(C)(C)NC(=O)c1cc(-c2cc3c(C(=O)NC)c(-c4ccc(F)cc4)oc3nc2CCC(F)(F)F)ccc1OC [Compound 21001]	< 0.1	
CNC(=O)c1c(-c2ccc(F)cc2)oc2nc(CCC(F)(F)F)c(-c3ccc(OC)c(C(=O)NCC(F)(F)C(F)(F)C(F)(F)F)c3)cc12 [Compound 21002]	< 0.1	
CNC(=O)c1c(-c2ccc(F)cc2)oc2nc(CCC(F)(F)F)c(-c3ccc(OC)c(C(=O)NC(CF)(CF)CF)c3)cc12 [Compound 21003]	< 0.1	
CNC(=O)c1c(-c2ccc(F)cc2)oc2nc(CCC(F)(F)F)c(-c3ccc(F)c(C(=O)NC(C)C(F)(F)F)c3)cc12 (stereo not drawn) [Compound 22001]	< 0.1	0.0108
CCC(NC(=O)c1cc(-c2cc3c(C(=O)NC)c(-c4ccc(F)cc4)oc3nc2CCC(F)(F)F)ccc1F)C(F)(F)F (stereo not drawn) [Compound 22002]	< 0.1	
CNC(=O)c1c(-c2ccc(F)cc2)oc2nc(CCC(F)(F)F)c(-c3ccc(F)c(C(=O)NC(C)(C)C(F)(F)F)c3)cc12 [Compound 22003]	< 0.1	
CNC(=O)c1c(-c2ccc(F)cc2)oc2nc(NCC(F)(F)F)c(-c3cccc(C(=O)NC(CF)(CF)CF)c3)cc12 [Compound 30001]	< 0.1	
C#CC(C)(C)NC(=O)c1cccc(-c2cc3c(C(=O)NC)c(-c4ccc(F)cc4)oc3nc2NCC(F)(F)F)c1 [Compound 30002]	< 0.1	0.0037
CNC(=O)c1c(-c2ccc(F)cc2)oc2nc(NCC(F)(F)F)c(-c3cccc(C(=O)NC(C)C(F)(F)F)c3)cc12 (stereo not drawn) [Compound 30004]	< 0.1	
CCC(NC(=O)c1cccc(-c2cc3c(C(=O)NC)c(-c4ccc(F)cc4)oc3nc2NCC(F)(F)F)c1)C(F)(F)F (stereo not drawn) [Compound 30005]	< 0.1	
CNC(=O)c1c(-c2ccc(F)cc2)oc2nc(NCC(F)(F)F)c(-c3cccc(C(=O)NC(C)(C)C(F)(F)F)c3)cc12 [Compound 30006]	< 0.1	0.0053
CNC(=O)c1c(-c2ccc(F)cc2)oc2nc(NCC(F)(F)F)c(-c3cccc(C(=O)NC(C4CC4)C(F)(F)F)c3)cc12 (stereo not drawn) [Compound 30007]	< 0.1	
CNC(=O)c1c(-c2ccc(F)cc2)oc2nc(NCC(F)(F)F)c(-c3cccc(C(=O)NC4(C(=O)OC)CC4)c3)cc12 [Compound 30008]	< 0.1	
